Laboratory results: patent US20200306210A1 (ZOGENIX INTERNATIONAL LIMITED, priority 2017, published 2020)
Several values for one entry are separate records, joined by “and”; a condition that tells them apart may be missing. Equal entries are not always repeated. Structures can show the parent of a compound that is named as a salt.

Test system: children and young adults with Dravet syndrome
Assay: Study 1: safety (TEAEs, body weight, echocardiography)
Format: in vivo, Human
Procedure: The incidence of treatment-emergent adverse events (TEAEs) was monitored continuously during the study. TEAEs were graded by the investigator as mild, moderate, or severe, and related or not related to study medication. Vital signs, height, weight, and clinical laboratory evaluations were performed at each study visit. The Behavior Rating Inventory of Executive Function (BRIEF) was administered at baseline and periodically during the treatment period to assess for any effects of treatment on cognitive function. Doppler echocardiography (ECHOs) and 12-lead electrocardiography (ECGs) were performed during the screening/baseline period, after 6 weeks of treatment, and after 14 weeks of treatment at the end of the maintenance period. The ECGs and ECHOs were evaluated by two independent cardiologists who were blind to treatment randomization. In the event of disagreement, a third cardiologist arbitrated the decision.
All subjects received ZX008 or matching placebo for up to approximately 16 weeks (Titration Period=2 weeks; Maintenance Period=12 weeks; Taper/Transition Period=2 weeks) in Study 1. After completion of the Maintenance Period, eligible subjects could enroll in an open-label extension (OLE) study, after completion of the transition. […] Follow-up cardiovascular safety assessments, including ECG and ECHO, were performed 3 to 6 months following the last dose of study medication.
In the ZX008 0.2 mg/kg/day group, 5 (12.8%) subjects had weight losses ranging from 8.4% to 21.9% of body weight; the one subject with a 21.9% loss was under the guidance of a nutritionist to manage their weight during the trial, and another subject with a 15.3% loss had been diagnosed with diabetes mellitus shortly before enrolling in the study and was also being managed to lose weight. One subject in the 0.2 mg/kg/day group gained 10.3% body weight during the study. In the ZX008 0.8 mg/kg/day group, 8 (20.0%) subjects lost weight, ranging from 7.2% to 11.4% of baseline body weight. One subject in the ZX008 0.8 mg/kg/day group discontinued citing decreased appetite and weight loss, among other events. The weight loss, however, amounted to less than 1 kg. There were no deaths in the study.

Q: Which results are given for CCNC(C)Cc1cccc(C(F)(F)F)c1 (centres unmarked) [ZX008, fenfluramine hydrochloride]?
A: Deaths in the study: no deaths; Tolerability: generally well tolerated; At least one echocardiographic finding with trace mitral and/or trace aortic regurgitation, % of subjects (0.2 mg/kg/day): 17.9%; At least one echocardiographic finding with trace mitral and/or trace aortic regurgitation, number of subjects (0.2 mg/kg/day): 7; Body weight gained during the study, one subject (0.2 mg/kg/day): 10.3%; Serious adverse events, % of subjects (0.2 mg/kg/day): 10.3%; Serious adverse events, number of subjects (0.2 mg/kg/day): 4; Status epilepticus (serious adverse event), % of subjects (0.2 mg/kg/day): 2.6%; Status epilepticus (serious adverse event), number of subjects (0.2 mg/kg/day): 1; Subjects with weight loss (change from baseline ≥7%), number (0.2 mg/kg/day): 5; TEAEs mild to moderate in severity, % of patients among those with TEAEs (0.2 mg/kg/day): 94.6%; TEAEs mild to moderate in severity, number of patients among those with TEAEs (0.2 mg/kg/day): 35; Subjects with weight loss (change from baseline ≥7%), % (0.2 mg/kg/day, hydrochloride): 12.8% and 13%; At least one echocardiographic finding with trace mitral and/or trace aortic regurgitation, % of subjects (0.8 mg/kg/day): 22.5%; At least one echocardiographic finding with trace mitral and/or trace aortic regurgitation, number of subjects (0.8 mg/kg/day): 9; Serious adverse events, % of subjects (0.8 mg/kg/day): 12.5%; Serious adverse events, number of subjects (0.8 mg/kg/day): 5; Status epilepticus (serious adverse event), % of subjects (0.8 mg/kg/day): 5%; Status epilepticus (serious adverse event), number of subjects (0.8 mg/kg/day): 2; Subjects with weight loss (change from baseline ≥7%), number (0.8 mg/kg/day): 8; TEAEs mild to moderate in severity, % of patients among those with TEAEs (0.8 mg/kg/day): 92.1%; TEAEs mild to moderate in severity, number of patients among those with TEAEs (0.8 mg/kg/day): 35; Subjects with weight loss (change from baseline ≥7%), % (0.8 mg/kg/day, hydrochloride): 20%; Most common non-cardiovascular adverse events (ZX008-treated patients): decreased appetite, diarrhea, nasopharyngitis, lethargy, somnolence, and pyrexia; TEAEs reported, % of subjects (each ZX008 dose group (0.2 and 0.8 mg/kg/day)): 95%; Cases of cardiac valvulopathy or pulmonary hypertension (≤30 mg/day, 14-week treatment and 2-week transition, hydrochloride): no cases
